Assay results published in PubChem BioAssay AID1645871.

details: pampa; pH 5.0; 30.0 min; 50.0 µM

SMILES | Papp [×10⁻⁶ cm/s]
C[C@H]1CN(C(=O)Nc2ccc(F)cc2F)C[C@@H]1c1nc(-c2ccccc2)no1 | 917
COc1ccc(-c2cc(C)nc3c(-c4ccc(OC)c(OC)c4)c(C)nn23)cc1 | > 1000
CCN(CCCOc1ccc2c(Nc3cc(CC(=O)Nc4cccc(F)c4)[nH]n3)ncnc2c1)CCOP(=O)(O)O | 3.64
COc1ccccc1N1CCN(CCN(C(=O)c2ccc(F)cc2)c2ccccn2)CC1 | 73
COc1ccc(NC(=O)c2cc(-c3ccc[nH]3)n[nH]2)cc1OC | 203
COc1cccc(Nc2ncc(-c3cccc(N(C)C)c3)c3c2OCC3)c1 | > 1000
O=C(CCCN1CCC(O)(c2ccc(Cl)cc2)CC1)c1ccc(F)cc1 | 396
CCOc1ccc(-c2nnc(SCC(=O)NCc3ccccc3Cl)o2)cc1 | 2
COc1ccc(-c2nc3sc(CCNC(=O)C(C)(C)C)c(C)n3n2)cc1 | 657
CCC(CC)c1cc([C@H]2CN3CC[C@H]2C[C@@H]3CNC(=O)Cc2cccs2)nc(-c2ccncc2)n1 | 320
COc1ccc(-n2nc(C)c([C@@H]3C=C[C@@H](NCc4ccc(N(C)C)cc4)C3)c2C)cc1 | > 1000
c1ccc(CNc2cc3c(cn2)CN(Cc2cccnc2)CCN3)cc1 | 15.8
CC(=O)Nc1ccc(NC(=O)C(NS(=O)(=O)c2ccc(Br)s2)c2ccccc2)cc1 (stereo not drawn) | 16.2
COc1cc(C(=O)NC2CCCc3c2[nH]c2ccccc32)cc(OC)c1OC (stereo not drawn) | 926
CCc1ccc(C2N=C(N)Nc3nc4ccccc4n32)cc1 (stereo not drawn) | 1.54
CCC(CC)c1cc([C@H]2CN3CC[C@H]2C[C@@H]3CNC(=O)COc2ccccc2)nc(-c2ccncc2)n1 | 374
COCCNC(=O)c1ccc(-c2ncc3cnc(-c4cccc(F)c4)cn23)cc1 | 283
CN(C)c1ccc(-c2cc[nH]c(=O)c2N)cc1 | 171
CC(NCc1ccc2c(c1)nc(NC(=O)c1ccc(-c3cn[nH]c3)s1)n2CC(C)(C)O)C(C)(C)C (stereo not drawn) | 4.16
O=C(c1ccc2c(c1)OCO2)N1CCC(Cc2nc(-c3cnccn3)no2)CC1 | 44
COc1ccc(C)cc1Nc1c2c(nc3ccccc13)CCC2 | 293
CCOC(=O)c1ccc(N2C(=O)c3n[nH]c(-c4cccs4)c3C2c2ccc(Cl)cc2Cl)cc1 (stereo not drawn) | 316
Cc1ccc(-c2nc(C)c(C(=O)Nc3ccc4c(c3)C(=O)N3CCC[C@H]3C(=O)N4)s2)cc1 | 48.2
Cc1ccc(C)c(CN2CCC(CNC(=O)Nc3ccc(Br)cc3F)CC2)c1 | 979
COc1ccc(-c2cc(-c3ccccc3)nc(SCC(=O)Nc3ccccc3C)c2C#N)cc1 | 587
Cc1nn2c(c1-c1ccccc1Oc1ccccc1)N(Cc1ccccc1O)CCC2 | 879

SMILES | Papp [×10⁻⁶ cm/s]
O=C(CCCN1CCC(n2c(=O)[nH]c3ccccc32)CC1)c1ccc(F)cc1 | 98.2
CCc1[nH]c2ccc(CNC(=O)Cc3cnc4c(C)cccn34)cc2c1C | 32.2
O=C(NC1CCCc2c1[nH]c1c(Cl)cccc21)c1ccc2c(c1)OCO2 (stereo not drawn) | 190
C=C1[C@@H](C)C2[C@H](Cc3ccccc3)NC(=O)[C@@]23C(/C=C/C[C@H](C)C[C@@](C)(O)/C=C/[C@@H]3OC(C)=O)[C@@H]1O (stereo partly drawn) | 55
C[C@H]1CN(C(=O)c2nn(C)c3ccccc23)C[C@@H]1c1nc(-c2cccnc2)no1 | 739
Cc1ccc(-c2c(CN3CCN(c4cccc(C(F)(F)F)c4)CC3)csc2C)cc1 | 35
COc1ccc(-c2nc3c(c(SCC(=O)Nc4ccc(C(=O)O)cc4)n2)Cc2ccccc2O3)cc1 | 36.6
CNc1nc2c(s1)C(c1ccccc1F)CC(=O)N2 (stereo not drawn) | 60.3
Cc1ccc2c(c1)N(S(=O)(=O)c1cc(-c3onc(C)c3C)ccc1C)CCO2 | 226
O=C(Nc1ccc(F)cc1F)c1cc(-c2ccc[nH]2)n[nH]1 | 166
CCS(=O)(=O)c1ncc(N(Cc2ccc(F)cc2)Cc2ccco2)c(C(=O)Nc2cc(C)ccc2C)n1 | 696
COc1ccc(-n2nc(C3CCCN(C(=O)Cc4ccccn4)C3)[nH]c2=O)cc1 (stereo not drawn) | 71.4
CCc1ccc(C2C(C(=O)Nc3ccccc3OC)=C(C)Nc3c(C(=O)Nc4ccc(C)cc4)cnn32)cc1 (stereo not drawn) | 288
c1ccc(Nc2cc3c(cn2)CN(Cc2cccs2)CCN3)cc1 | 106
CCOC(=O)c1[nH]c(C)c(CCC(=O)N2CCN(c3cc(C)ccc3C)CC2)c1C | > 1000
Cc1cccc(S(=O)(=O)c2cn(Cc3ccccc3)c3cc(N4CCCCC4C)c(F)cc3c2=O)c1 (stereo not drawn) | 485
COc1ccc(NC(=O)CCCc2nnc3n(CCC(C)C)c(=O)c4sccc4n23)cc1Cl | > 1000
COc1ccc(-n2nc3c(N4CCCC(C(=O)NCCc5ccc(C)cc5)C4)nnc(C)c3c2C)cc1 (stereo not drawn) | 467
COc1ccccc1NC(=O)C1=C(C)Nc2c(C(=O)Nc3cccc(C)c3)cnn2C1c1ccccc1Cl (stereo not drawn) | 156
Cc1onc(-c2ccc(F)cc2)c1COc1ccc(C(=O)N2CCS(=O)(=O)CC2)cn1 | 291
COc1ccc(S(=O)(=O)N(CC(=O)Nc2ccc(C)cc2)c2ccc(C)cc2)cc1OC | 663
Cc1cccc(N(C)c2nc3ccccc3c3nnc(C)n23)c1 | > 1000
COc1ccc(C)cc1NS(=O)(=O)c1ccc(-c2cnc(C3CC3)o2)cc1 | 883
CSc1ccccc1N1CCN(CCCCCC(=O)NC2CCCc3ccccc32)CC1 (stereo not drawn) | 628
COc1ncc(-c2ccc3c(Nc4cc(Oc5cc(F)cc(F)c5)cc(C(=O)O)c4)c(S(=O)(=O)NC4CC4)cnc3c2)c(OC)n1 | 1.2
COc1ccc(OC)c(Nc2c3c(nc4ccccc24)CCC3)c1 | 129

SMILES | Papp [×10⁻⁶ cm/s]
COc1ccc(-c2nc3ccc(C4=NNC(=O)CC4C)cc3[nH]2)cc1 (stereo not drawn) | 232
CC(C)CNc1ccnc(NCc2csc(-c3ccccc3)n2)n1 | > 1000
Cc1cc(Br)ccc1NC(=O)C(NS(=O)(=O)c1cccs1)c1ccccc1 (stereo not drawn) | 79.4
Cc1cc(-c2ccc(C)c(S(=O)(=O)NCC3CCN(Cc4ccc(F)cc4)CC3)c2)on1 | 486
OC1(c2ccc(Cl)cc2)CCN(Cc2c[nH]c3ccccc23)CC1 | 419
C[C@@H](O)CNC(C)(C)CC(=O)N[C@@H]1CCc2ccccc2N(Cc2ccc(-c3ccccc3-c3nn[nH]n3)cc2)C1=O | 5.85
COc1cc2c(Nc3ccc(Br)cc3F)ncnc2cc1OCC1CCN(C)CC1 | 97.3
O=C(NC1CC1)C1CCCN1C(=O)c1cccc(-c2ccccn2)c1 (stereo not drawn) | 76.5
CC1=Nc2cc(C(=O)NCCc3ccccc3)ccc2Sc2c(C)ccc(C)c21 | 466
O=C(NCCCN1CCCC1=O)c1ccc(-c2ncc3cnc(-c4ccccc4)cn23)cc1 | 193
CCOc1ccc(-c2cn3c(n2)sc2cc(C(=O)NCCCN(CC)CC)ccc23)cc1 | 114
COc1ccc(-c2c(-c3cc(C(=O)O)ccn3)ncn2C)cc1 | 2.67
O=C(Nc1cccnc1)c1cccs1 | 181
Oc1ccccc1CN1CCNc2cc(Nc3ccccc3)ncc2C1 | 23.1
COc1ccccc1-c1nnc2sc(-c3ccc(N(C)C)cc3)nn12 | > 1000
Nc1ncc(S(=O)(=O)N2CCN(c3ccccc3)CC2)cn1 | 6.73
O=c1[nH]c(N2CCOCC2)nc2c1CCN(Cc1ccc(Cl)cc1F)CC2 | 71.2
Cn1cc2c3c(cccc31)CN(C(=O)c1ccc(F)c(Cl)c1)CC2 | 824
CN(C)CCOC1=Cc2ccccc2Sc2ccc(Cl)cc21 | 857
CC/C=C\C/C=C\C/C=C\C/C=C\C/C=C\C/C=C\CCC(=O)NCCO | 19.5
CCc1ccc(-n2nc(C)c3c2NC(=O)CSC3c2ccccc2C)cc1 (stereo not drawn) | 707
COc1ccc(-n2nc(C3CCN(C(=O)C4CC4)CC3)[nH]c2=O)cc1 | 130
C[C@H]1CCC[C@H](O)CCC/C=C/c2cc(O)cc(O)c2C(=O)O1 | 795
COc1ccc(CCNc2ncnc3onc(C)c23)c(OC)c1 | 540
O=C(NC1CCCN(c2cc(-c3ccc(F)cc3)[nH]n2)C1)c1ccc2ncccc2c1 (stereo not drawn) | > 1000
CCc1ccc(OC(C)C(=O)N2CCC(c3nc4ccccc4o3)CC2)cc1 (stereo not drawn) | > 1000

SMILES | Papp [×10⁻⁶ cm/s]
CCOC(=O)c1ccc(NC(=O)CSc2nc3c(cc2C#N)N2CCC3CC2)cc1 | 236
COc1ccc(-c2cc(-c3cccc(NC(C)=O)c3)cn3cncc23)cn1 | 45.4
O=C(Cc1cccs1)NCc1nnc2ccc(-c3ccccc3)nn12 | 55.9
Cc1ccc(CN2C(=O)C(O)(CC(=O)c3ccc(C)cc3)c3ccccc32)cc1 (stereo not drawn) | 626
O=S(=O)(Nc1ccc(-c2cccnc2)c2cccnc12)c1cccc(C(F)(F)F)c1 | > 1000
O=C(CSc1nc(-c2ccc(F)cc2)[nH]c1-c1ccc(F)cc1)Nc1ccc2c(c1)OCCO2 | 585
Clc1cccc(COc2cncc(N3CCNCC3)n2)c1 | 742
COc1cccc(C(=O)Nc2ccc3oc(-c4ccc5ccccc5c4)nc3c2)c1 | 756
CC1=C[C@@H](CNCc2cccnc2)[C@H](C(C)C)C[C@H]1Cc1nnc(-c2ccc([N+](=O)[O-])cc2)o1 | 984
COc1ccccc1Nc1ccnc(N2CCN(C(=O)c3ccc(C)cc3)CC2)n1 | > 1000
COc1cccc(CNC(=O)CCCn2nc(C)c3c(C)n(-c4ccc(C)cc4)nc3c2=O)c1OC | 446
NC(=O)Nc1cc(-c2ccc(CN3CCOCC3)cc2)sc1C(N)=O | 1.19
CCc1cc(Cl)c(OC)c(C(=O)NC[C@@H]2CCCN2CC)c1O | 899
CS(=O)(=O)CCNCc1ccc(-c2ccc3ncnc(Nc4ccc(OCc5cccc(F)c5)c(Cl)c4)c3c2)o1 | 69.7
Cc1nc(-c2ccccc2)cc([C@H]2CN3CC[C@H]2C[C@@H]3CNC2CCOCC2)n1 | 12.9
O=C(Cc1c[nH]c2ncc(-c3ccc(Cl)cc3)cc12)NCc1cccnc1 | 818
COc1ccccc1Nc1ccnc(N2CCN(C(=O)c3ccc(F)cc3)CC2)n1 | 853
C[C@H]1CN(C(=O)Nc2ccc(F)cc2)C[C@@H]1c1nc(-c2ccccc2)no1 | 809
CN1Cc2c(cc(N3CCOCC3)nc2-c2ccccc2OC(F)(F)F)C1=O | > 1000
FC(F)(F)c1ccc(CN2CCNc3cc(Nc4ccccc4)ncc3C2)cc1 | 21.1
COc1ccc(CN2CCNc3cc(Nc4ccccc4)ncc3C2)cn1 | 2.38
c1cc(-c2cc(-c3ccncc3)c3cncn3c2)c2cc[nH]c2c1 | 21.7
COc1cc([C@@H]2c3cc4c(cc3[C@H](O)[C@H]3COC(=O)[C@H]23)OCO4)cc(OC)c1OC | 262
Oc1ccc(CN2CC(CNc3ccccc3)C3(C2)CN(c2ccccc2)C3)cc1 (stereo not drawn) | > 1000
CCOc1ccc(C2C(C(=O)Nc3ccccc3OC)=C(C)Nc3c(C(=O)Nc4cccc(C)c4)cnn32)cc1 (stereo not drawn) | 170
